The test system of one assay is ApoB/HepG2. The experiment in a line: Lipid Screen & IC50 Determination Protocol: ApoB ELISA of HEPG2 media. In kind it is cell-based, human. To be noted: at 15 μM; HEPG2, 24 hours. How it is done:
HEPG2 cell was started in 10 ml of MEM, 10% FBS, 1 mM Sodium Pyruvate. The cells were incubated in a tissue culture incubator. The cells were split into 4×96-wells plate in MEM, 10% FBS, 1 mM Sodium Pyruvate and allowed to grow to about 50% confluency and then removed.
The cells were treated with the desired concentration of compounds in 100 μl DMEM, 1% RSA for 24 hours. The compounds are dissolved in DMSO.
On the same day, 4×96-wells NuncImmunoSorb plate is coated with 100 μl of mouse anti-human ApoB monoclonal 1D1 (1:1000 dilution in 1×PBS, pH 7.4). The coating is allowed overnight.
The coated plate is washed 3 times with 1×PBS, pH 7.4, −0.05% Tween 20. 100 μl of the standards is added to the selected wells. ApoB standards are prepared at 6.25, 3.12, 1.56, 0.78, 0.39 ng, and each concentration is done in triplicates. For samples:
90 μl of 1×PBS, pH 7.4, −0.05% Tween 20 is added to each well corresponding to the sample. 10 μl of media is transferred from the treated HEPG2 plates to the ApoB ELISA plate. The plate is incubated at room temperature for 2 hours, rocking gently.
Wash the coated plate 3× with 1×PBS, pH 7.4, −0.05% Tween 20. Add 100 μl of sheep anti-human ApoB polyclonal from Boehringer Mannheim. (1:2000 dilution in 1×PBS, pH 7.4, −0.05% Tween 20) from Boehringer Mannheim. Incubate at room temperature for 1 hour, rocking gently. Wash the coated plate 3× with 1×PBS, pH 7.4, −0.05% Tween 20. Add 100 μl of rabbit anti-sheep IgG (1:2000 dilution in 1×PBS, pH 7.4, −0.05% Tween 20). Incubate at room temperature for 1 hour, rocking gently. Wash the coated plate 3× with 1×PBS, pH 7.4, −0.05% Tween 20. Add 100 μl of substrate (10 ml of distilled water, 100 μl of TMB (10 mg/ml), and 1 μl of hydrogen peroxide). Allow color to emerge and stop reaction with 25 ul of 8N sulfuric acid. Wells are read with MicroPlate Reader @ […]. Graph accumulation of ApoB in media as a percentage of control for each sample and their concentration. A determination of IC50 is obtained from the graph.
The degree of inhibition of the compounds of formulas (I) and (II) was determined by the assays described in Examples 62-64.

A further assay relates to VCAM-1. The experiment in a line: VCAM-1 Assay: TNF-stimulated cells, cell-surface ELISA. It counts as cell-based. As to the method: Two to four confluent P150 plates are trypsinized and the cells transferred to a 50 mL conical centrifuge tube. The cells are pelleted, resuspended, and counted using the trypan blue exclusion method.
Cells are resuspended at a concentration of 36,000 cells/mL and 1 mL is aliquoted per well.
Cells are split into 24 well tissue culture plates. The cells in each well should be approximately 90-95% confluent by the following day. Cells should not be older than passage 8.
Compounds are initially screened at 50 μM and 10 μM. A 50 mM stock solution for each compound is prepared in culture medium. The stock solution is diluted to 5 mM and 1 mM. When 10 μL of the 5 mM solution is added to the well (1 mL medium/well), the final concentration will be 50 μM. Adding 10 μL of the 1 mM solution to the well will give a final concentration of 10 μM.
Compounds which will not go into solution in culture medium are resuspended in DMSO at a concentration of 25 mM. The stock solution is then diluted to the final concentration in culture medium. The old medium is aspirated and 1 mL of the new medium with the compound is added. For example, if the final concentration is 50 μM, the 2 μL of the 25 mM stock is added per mL of culture medium. The […] solution is diluted for lower concentrations.
The compounds are added to the plate (each compound is done in duplicate). One plate is done for VCAM expression and one plate is done for ICAM expression.
Immediately after the compounds are added, TNF is added to each well. 100 units/mL TNF is usually added to each well. Since each lot of TNF varies in the number of units, each new lot is titrated to determine the optimum concentration. Therefore this concentration will change. If 100 units/mL is bing used, dilute the TNF to 10 units/μL and add 10 μL to each well.
The plates are incubated at 37° C., 5% CO2 overnight (approximately 16 hours). The next day the plates are checked under the microscope to see if there are any visual signs of toxicity. Records are made of any cell death, debris, or morphology changes, as well as insoluble compounds (particulate or turbity).
In order to assess MCP-1, the media (500 μL) is saved and frozen at −70° C. Wash cells once with roughly 1 ml/well of Hanks Balance Salt Solution (HBSS) or PBS. Gently empty the wash solution and then tap the plate onto paper towels. Add either 250 μL/well of HBSS +5% FCCS to the plank (no primary antibody wells) or 250 μL/well of primary antibody diluted in HBSS +5% FCS. Incubate for 30 minutes at 37° C. Wash the wells twice with 0.5 mL/well HBSS or PBS and gently tap the plates onto paper towels after the last wash. Add 250 μL/well of HRP-conjugated second antibody diluted in HBSS +5% FCS to every well including the blank wells (no primary antibody). Incubate at 37° C. for 30 minutes. Wash the wells four times with 0.5 mL/well HBSS or PBS and gently tap the plates onto paper towels after the last wash. Add 250 μL/well of substrate solution. Incubate at room temperature in the dark until there is adequate color development (blue). Note the length of time incubation was performed (typically 15-30 minutes). Add 75 μL/well stopper solution (8N sulfuric acid), and read A450 nm.

On to `CC(C)(Sc1cc(C(C)(C)C)c(O)c(C(C)(C)C)c1)Sc1cc(C(C)(C)C)c(OC(=O)CCCC(=O)O)c(C(C)(C)C)c1` [Pentanedioic acid, mono[4-[[1-[[3,5-bis(1,1-dimethylethyl)-4-hydroxyphenyl]thio]-1-methylethyl]thio]-2,6-bis(1,1-dimethylethyl)phenyl] ester], for which the “ApoB/HepG2 % inhibition at [μM]” value in the assay on ApoB/HepG2 was found to be 70% at 15. For the same compound, the IC50 in the assay on VCAM-1 (bare number = IC50, NE not defined in the patent, read-out: VCAM-1 IC50 or % inhibition at [μM]: IC50) amounted to 8.7 µM.

`CC(C)(Sc1cc(C(C)(C)C)c(O)c(C(C)(C)C)c1)Sc1cc(C(C)(C)C)c(OCc2ccc([N+](=O)[O-])cc2)c(C(C)(C)C)c1` [Phenol, 4-[[1-[3,5-bis(1,1-dimethylethyl)-4-[(4-nitrophenyl)methoxy]phenyl]thio]-1-methylethyl]thio]2,6-bis(1,1-dimethylethyl)-]: in the assay on ApoB/HepG2, the “ApoB/HepG2 % inhibition at [μM]” value turned out to be 17% at 15. In addition, the “VCAM-1 % inhibition at [μM]” value in the assay with VCAM-1 (at 50 μM) was 30% at 50.

The values are drawn from patent US6602914B2, “Compounds and methods for the inhibition of the expression of VCAM-1” (AtheroGenics, Inc., priority 1997, dated 2003).
